# Assay results taken from patent US12336986B2, “Treatment and prevention of ocular neurodegenerative disorder” (The Jackson Laboratory, priority 2015, dated 2025).
# Entries after “also recorded” stand apart in the source; their conditions may differ.
# How the values were obtained:
# D2 retinas [1] = assay: Metabolic phenotyping of retina: total NAD, NAD(t) (NAD+/NADH); type: in vivo, mouse
# Experimental: We performed additional metabolic profiling of neural retinas from 4-, 9-, and 12-months old D2 and D2-Gpnmb^+ eyes. Metabolic profiling was performed using targeted assays following the manufacturers recommendations. The following metabolites were profiled: NAD+/NADH (i.e. total NAD, NAD(t)), GSH/GSSG (i.e. total glutathione, glutathione(t)), and pyruvate.
# For GSH/GSSO and NAD^+/NADH quantification retinas were dissociated (as above) and compounds measured following the manufacturer's instructions (GSH/GSSG, Cayman Chemical; NAD^+/NADH, Biovision). Results were calculated according to the standard curve generated by using standards from the kits. Final metabolite concentrations for each samples were normalized to total protein concentration measured by Bradford assay.
# [2] = system: retinal ganglion cells (RGCs); assay: RGC soma loss (RBPMS staining) in D2 glaucoma; type: in vivo, mouse; settings: D2 mice; NAM 550 mg/kg/day or pyruvate 500 mg/kg/day
# Experimental: For immunofluorescence staining, mice were euthanized by cervical dislocation, their eyes enucleated and placed in 4% PFA ON. Retinas were dissected and flat-mounted onto slides, permeabilized with 0.1% Triton-X for 15 mins, blocked with 2% BSA in PBS and stained ON at RT in primary antibody (see below for list of antibodies).
# After primary antibody incubation, retinas were washed 5 times in PBS, stained for 4 hrs at RT with secondary antibody. Slides were then washed a further 5 times with PBS, stained with DAPI for 15 mins, mounted with fluoromount, coverslipped and sealed with nail-polish.
# For retinal sections, eyes were cryoprotected in 30% sucrose ON, frozen in OCT and cryosectioned at 18 μm. Slides were warmed to room temperature and the procedure above was followed. Retinas were imaged on a Zeiss AxioObserver for low resolution counts. Retinal sections were imaged on a Leica SP8 far higher resolution images.
# D2 retinas [3] = assay: Lipid droplet formation in inner retina (Oil Red O staining); type: in vivo, mouse; settings: D2 mice, 12-month, NAM 550 mg/kg/day
# Experimental: For Oil Red O staining, slides were warmed to room temperature, washed quickly in 60% isopropanol, incubated at RT in Oil Red O and Haematoxylin for 15 mins, washed in 60% isopropanol again, mounted and coverslipped. Oil Red O stained retinal sections were imaged using a Nikon Eclipse […].
# [4] = system: retinal ganglion cells (RGCs); assay: RNA-sequencing of FAC sorted RGCs, differential gene expression; type: in vivo, mouse; settings: for RGC gene expression changes (RNA-seq): D2 mice, NAM 550 mg/kg/day in drinking water from 6-month, 9-month RGCs
# Experimental: Prior to cell collection, all surfaces and volumes were cleaned with 70% ethanol and RNaseZap (ThermoFisher Scientific) solution followed by dH2O. Mice were euthanized, eyes enucleated and placed immediately into ice-cold HBSS. Retinas were dissected from the eyes (4- or 9-month of age, no axon degeneration confirmed by PPD staining, data not shown) in HBSS on ice and placed directly into 100 μL, of a custom HBSS (Gibco), dispase (5 U/mL) (Stemcell Technologies), DNase 1 (2000 U/mL) (Worthington Biochemical) and SUPERase (1 U/μL) (ThermoFisher Scientific) solution. All retinas were from eyes that had no glaucomatous axon degeneration by PPD staining and analysis (see optic nerve assessment below). Retinas were incubated for 20 mins at 37° C. and shaken at 350 RPM in an Eppendorf Thermomixer R followed by gentle trituration using a 200 μL pipette. Samples were blocked in 2% BSA, SUPERase (1 U/μL) in HBSS, and stained with conjugated antibodies against Cd11b, Cd11c, Cd34, Cd45.2, GFAP, Thy1.2 as well as DAPI. This cocktail allowed other retina cell types to be accurately removed during FACS.
# FACS was performed on a FACSAria (BD Biosciences). Thy1.2^+ (and negative for all other markers) RGCs were sorted into 300 μL buffer RLT+1% β-ME, vortexed and frozen at −80° C. until further processing.
# […] RGC samples were defrosted on ice and homogenized by syringe in RLT Buffer (total volume 300 μL). Total RNA was isolated using RNeasy micro kits according to manufacturer's protocols (Qiagen) including the optional DNase treatment step, and quality was assessed using an Agilent 2100 Bioanalyzer. The concentration was determined using Ribogreen Assay (Invitrogen). […]
# Library size produced was analyzed using qPCR using the Library Quantitation kit/Illumina GA/ABI Prism (Kapa Biosystems). Libraries were barcoded, pooled, and sequenced 6 samples per lane on a HiSeq 2500 sequencer (illumina) giving a depth of 30-35 million reads per sample.
# Samples were subjected to quality control analysis by a custom quality control python script. Reads with 70% of their bases having a base quality score ≥30 were retained for further analysis. Read alignment was performed using TopHat v 2.0.7 (Kim et al., Genome Biol 14, R36, 2013) and expression estimation was performed using HTSeq (Anders et al., Bioinformatics 31, 166-169, 2015) with supplied annotations and default parameters against the DBA/2J mouse genome (build-mm10). […]
# Differential gene expression analysis between groups was performed using edgeR v 3.10.5 (Robinson et al., Bioinformatics 26, 139-140, 2010) following, batch correction using RUVSeq, the removal of outlier samples and lowly expressed genes by removing genes with less than five reads in more than two samples. […]
# [5] = system: mouse model for EAE, ALS, RRMS; settings: US 2006-0211744 A1, RRMS mouse models; cited from earlier work
# RGCs = settings: U.S. Pat. No. 7,776,326; injected intravitreally; cited from earlier work
# [6] = RGCs, q<0.05, NAM 550 mg/kg/day
smiles,measurement,setting,value
"NC(=O)c1cccnc1 [NAM, nicotinamide]",NAD(t) levels in retina,D2 retinas [1]; D2 Wld^S mice treated with NAM 550 mg/kg/day,synergistic; also recorded: additional benefit
same,NAD(t) levels in retina,"D2 retinas [1]; D2 mice, NAM 550 mg/kg/day in drinking water, through to 12-month",prevented the decline of NAD levels; also recorded: restored; also recorded: increased
same,RGC soma loss (RBPMS),[2],prevented; also recorded: protects from RGC soma loss; also recorded: prevent RGC soma loss
same,lipid droplet formation in the inner retina,D2 retinas [3],prevented; also recorded: prevents lipid droplet formation
same,RGC gene expression changes (RNA-seq),[4],prevented even the earliest molecular signs of glaucoma in the majority of treated eyes; also recorded: prevented the vast majority of age-related gene expression changes; also recorded: returned to normal; also recorded: molecularly similar to controls; also recorded: molecularly similar to both young and age-matched no glaucoma control RCGs; also recorded: prevents transcriptome imbalances and OXPHOS imbalances; also recorded: prevents age- and disease-related gene expression changes
same,RGC gene expression changes (RNA-seq),[4]; listed as nicotinamide,more closely molecularly matched to young control mice
same,"number of DE genes, 4-month D2-Gpnmb+ vs. NAM",[4]; [6],83
same,"number of DE genes, 9-month D2-Gpnmb+ vs. NAM",[4]; [6],4437
same,neural degeneration,[5],reduces neural degeneration
same,axon degeneration in RGCs after intravitreal injection,RGCs,not protective against axon degeneration in RGCs; also recorded: did not show any difference from the control animals
